Measurements from patent US20040146509A1, “Methods for improvement of lung function using TGF-beta inhibitors” (priority 2002, published 2004).

Test system: bleomycin-induced lung fibrosis
Assay: Lung hydroxyproline content following bleomycin-induced lung fibrosis (14 days)
Assay type: in vivo, rat
Conditions: rats, bleomycin intratracheal day 0; day 1-14: Compound B 30 mg/kg oral three times a day, Triamcinolone 8 mg/kg i.p. every other day; versus bleo+saline; FIG. 8
Description: Male Sprague-Dawley rats weighing 225 to 250 were purchased from Charles River Laboratories, Inc. Rats were housed in groups of two in the animal facility provided with filtered air and constant temperature and humidity. All animal maintenance was in accordance with Scios' guidelines for animal welfare. The rats were allowed to acclimate to the new environment for one week before all treatment. A 12:12 hour light-dark cycle was maintained, and the animals had free access to ad libitum food and water.
Day 0: To induce pulmonary fibrosis, rats were intubated with 0.5 ml of saline or 0.5 ml of 1.0 unit/ml of bleomycin by intratracheal injection under anesthesia. The anesthetic solution used is a mixture of 0.4 ml of ketamine (100 mg/ml) and 0.25 ml of xylazine (20 mg/ml) at a dose of 1.3 ml/kg.
Group 2 & 3: Rats were weighed and orally dosed with 5 ml/kg of saline three times a day […]
To estimate the total amount of collagen in fibrotic lungs, the hydroxyproline content of the whole lung was measured in each group according to the method described by Woessner Biochim Biophys Acta. […]
Briefly, lungs were harvested and homogenized in 15 ml of 1×PBS with a Polytron homogenizer. […] The hydroxyproline content was the measured using the method of Woessner.
The data were analyzed using a one-way analysis of variance (ANOVA) with a Bonferroni's multiple comparisons post tests. […]

C[C@]12C=CC(=O)C=C1CC[C@H]1[C@@H]3C[C@@H](O)[C@](O)(C(=O)CO)[C@@]3(C)C[C@H](O)[C@@]12F [Triamcinolone]
lung hydroxyproline content: significantly reducing lung hydroxyproline content
